# Tests used:
# HIV = assay: Phase II double-blind study of acemannan alone and with AZT; type: in vivo; conditions: ARC patients, 24 weeks
# Method: Forty-seven HIV+ patients (23 asymptomatic patients, 24 ARC patients) participated in a double-blind randomized phase II study of acemannan. The protocol was approved by the relevant ethical committees of the Hospital St. Pierre in Brussels, Belgium. In order to evaluate safety and tolerance, with or without concomitant AZT therapy, acemannan was administered during 24 weeks at a daily dose of 1000 mg (2 capsules of 125 mg, 4 times daily). The 23 asymptomatic patients were blindly allocated to receive either acemannan (11 patients, group 1) or placebo (12 patients, group 2). Of the 24 ARC patients who received 1000 mg AZT daily during the study, 12 patients (group 3) also received acemannan 1000 mg (2 capsules of 125 mg, 4 times daily) and 12 patients (group 4) also received placebo.
# [1] = test system: HTLV-IIIB strain of HIV-1; assay: Viability (MTT) of HIV-1-infected MT-2 cells, AZT-acemannan checkerboard; type: cell-based
# Method: Virus Strains - The HTLV-IIIB strain of HIV-1 was obtained from Dr. R. Gallo, NIH, Bethesda, Maryland. Viral stocks were prepared by propagating the virus in H9 lymphoid cells. A stock preparation of the virus was stored at -80°C. The 50% tissue culture infective dose (TCID50)/ml of cell-free virus pool stock was determined by end-point titration using MT-2 cells. Multiplicity of infection (MOI) was determined by the method of Reed and Muench.
# Cell Lines - MT-2 cells were propagated in RPMI-1640 supplemented with 2 mM L-glutamine and 15% (v/v) fetal bovine serum. MT-2 cells naturally express CD4 on their surface and are thus good target cells for HIV-1 infection. In addition, they rapidly undergo cytolysis at low levels of virus replication.
# Primary testing of antiviral activity - MT-2 cells were first treated with polybrene (2 mg/ml) for 30 min and then infected with HIV at a MOI of 0.03. After virus absorption, the cells were pelleted and resuspended in complete medium. […] Parallel assays were performed in triplicate, and drug cytotoxicity was measured at parallel concentrations in duplicate. […] On day 7 post-infection, cell viability was measured by the addition of MTT (450 µg/ml) to the test plates. […] Plates were read at a wavelength of 570 nm on a Vmax plate reader (Molecular Devices, Inc.). The percent change in cell viability was calculated using the following formula: % change in cell viability =((TI-TO)-(OI-TO))/((OO-TO)-(OI-TO))x 100 [formula] where: • TI is the optical density (OD) in treated, infected cells, • TO is the OD in treated, uninfected cells, • OI is the OD in untreated, infected cells, and • OO is the OD in untreated, uninfected cells.
# Antiviral activity of acemannan-AZT combinations - Antiviral activity of acemannan in combination with AZT at various concentrations was evaluated using the microtiter infection assay described above. […] Combinations were evaluated in duplicate, and treated uninfected controls were used to determine drug cytotoxicity. Each compound was also evaluated alone at non-cytotoxic concentrations. […]
structure (smiles),measurement,setting,value
"Cc1cn([C@H]2C[C@H](N=[N+]=[N-])[C@@H](CO)O2)c(=O)[nH]c1=O [AZT, Zidovudine]",patients who developed AIDS,HIV; 12 per group,2 patients
same,mean Karnofsky score at exit,"HIV; AZT 1000 mg daily, acemannan 1000 mg daily, entry 84 (combination), 81 (AZT alone)",83
same,mean CD4 at exit,"HIV; entry 263/mm3 (combination), 145/mm3 (AZT alone)",252 /mm3
same,protection,[1]; 0.01 µg/ml AZT alone,neither of which was protective on its own
same,protection,[1]; 0.32 µg/ml AZT alone,65%
same,maximum protection,"[1]; AZT alone, 0.03 to 0.32 µg/ml, MOI 0.03",60-67%
